Legend:
U251 human glioma [1] = assay: Crystal violet (CV) cell viability assay, U251; type: cell-based; conditions: read-out: IC50 U251
Description: (§1) Thus, care must be taken when comparing their biological activities with those of our previous studies, even with the same cell line, because the covalent vs. non‐covalent combination of drugs might imply different mechanisms of action in the cell.44 Here, we studied the in vitro activity of ruthenacarborane 3, i. e. free acid, and its 8‐hydroxyquinolyl (4) and 4‐{(7‐chloroquinolin‐4‐yl)oxy}butanol‐1‐yl (5) esters, against a panel of cancer cell lines (B16 mouse melanoma, A375 human skin melanoma, MCF‐7 human breast adenocarcinoma, LN229 human glioblastoma, U251 human glioma). Human fibroblast cell line MRC‐5, murine microglial cell line BV‐2 as well as peritoneal exudate cells (Mph), were chosen as models for non‐malignant cells. […] On the other side, we wanted to assess the reproducibility of the viability data, under either controlled (with BSA) or uncontrolled (without BSA) conditions, in two sets of independent assays. […] Cells were exposed to 3–5 for 72 h, after which cell viability was determined via 3‐(4,5‐dimethylthiazol‐2‐yl)‐2,5‐diphenyltetrazolium bromide (MTT) and crystal violet (CV) assays, in parallel (Table 2). Cisplatin was also tested as reference.
(§2) Preparation of drug solutions. […] Stock solution of cisplatin was prepared in DMF (10 mM) immediately before use. A stock solution of BSA in PBS was prepared at 1.28 mM concentration, and stored at 4 °C in the dark. […] Alternatively, 3 or 4 (DMSO stock solution) were added to the BSA solution in PBS, always with a 10 : 1 molar ratio of BSA to ruthenacarborane. The BSA−ruthenacarborane solutions were incubated 0.5–1 h at room temperature, then diluted with cell culture medium to the desired final concentrations. Final concentrations of 3 and 4 were the same as for the BSA‐free formulation. Final DMSO was 0.02–0.5 vol %.
(§3) Colorimetric assays for cellular viability. […] For counting the number of attached (viable) cells, cells were fixed with 4 % (w/v) paraformaldehyde for 10 min at room temperature, and subsequently stained for 15 min with […] crystal violet (CV) solution. Cells were then washed with tap water, dried in air, and the CV dye was dissolved in 33 % (w/v) acetic acid solution. For the detection of mitochondrial respiration, cells were cultivated in MTT staining solution (0.5 mg mL^−1) for approximately 1 h. The dye was then discarded, and the formed formazan (purple) was dissolved in DMSO. The absorbance was measured with an automated microplate reader at λmax 540 nm, with the reference λmax 670 nm. Untreated cells or cells treated only with BSA (control) were also measured, as reference for BSA‐free and BSA‐containing drug formulations, respectively. For determination of the role of autophagy specific inhibitors, CQ or 3‐MA, were applied at a concentration of 20 μM and 0.5 mM, respectively, and the cells were stained with CV dye. Cell viability is expressed as percentage (%) relative to control (untreated cultures).58 Experiments were run in three independent replicates. […] Non‐linear regression analyses of the obtained results was done using GraphPad Prism software to calculate IC50 values.
(§4) mouse microglial cell line BV‐2 was a kind gift from Dr. Irena Lavrnja, Institute for Biological Research
(§5) “Siniša Stanković” (University of Belgrade).

LN229 human glioblastoma [2] = assay: Crystal violet (CV) cell viability assay, LN229; type: cell-based; conditions: read-out: IC50 LN229
Description: as §1, §2, §3, §4, §5

A375 human skin melanoma [3] = assay: MTT cell viability assay, A375; type: cell-based; conditions: 72 h
Description: as §1, §2
(§6) Colorimetric assays for cellular viability. […] For counting the number of attached (viable) cells, cells were fixed with 4 % (w/v) paraformaldehyde for 10 min at room temperature, and subsequently stained for 15 min with […] crystal violet (CV) solution. Cells were then washed with tap water, dried in air, and the CV dye was dissolved in 33 % (w/v) acetic acid solution. For the detection of mitochondrial respiration, cells were cultivated in MTT staining solution (0.5 mg mL^−1) for approximately 1 h. The dye was then discarded, and the formed formazan (purple) was dissolved in DMSO. The absorbance was measured with an automated microplate reader at λmax 540 nm, with the reference λmax 670 nm. Untreated cells or cells treated only with BSA (control) were also measured, as reference for BSA‐free and BSA‐containing drug formulations, respectively. […] Cell viability is expressed as percentage (%) relative to control (untreated cultures).58 Experiments were run in three independent replicates. […]

A375 human skin melanoma [4] = assay: Crystal violet (CV) cell viability assay, A375; type: cell-based; conditions: 72 h
Description: as §1, §2, §6

B16 mouse melanoma [5] = assay: MTT cell viability assay, B16; type: cell-based; conditions: 72 h
Description: as §1, §2, §6

B16 mouse melanoma [6] = assay: Crystal violet (CV) cell viability assay, B16; type: cell-based; conditions: 72 h
Description: as §1, §2, §6

[7] = system: MCF‐7 human breast adenocarcinoma; assay: MTT cell viability assay, MCF‐7; type: cell-based; conditions: 72 h
Description: as §1, §2, §6

[8] = system: MCF‐7 human breast adenocarcinoma; assay: Crystal violet (CV) cell viability assay, MCF‐7; type: cell-based; conditions: 72 h
Description: as §1, §2, §6

U251 human glioma [9] = assay: MTT cell viability assay, U251; type: cell-based; conditions: 72 h
Description: as §1, §2, §6

LN229 human glioblastoma [10] = assay: MTT cell viability assay, LN229; type: cell-based; conditions: 72 h
Description: as §1, §2, §6

[11] = system: murine microglial cell line BV‐2; assay: MTT cell viability assay, BV‐2; type: cell-based, mouse; conditions: 72 h
Description: as §1
(§7) Preparation of drug solutions. […] Stock solution of cisplatin was prepared in DMF (10 mM) immediately before use. A stock solution of BSA in PBS was prepared at 1.28 mM concentration, and stored at 4 °C in the dark. […] Alternatively, 3 or 4 (DMSO stock solution) were added to the BSA solution in PBS, always with a 10 : 1 molar ratio of BSA to ruthenacarborane. […]
(§8) Colorimetric assays for cellular viability. […] The absorbance was measured with an automated microplate reader at λmax 540 nm, with the reference λmax 670 nm. Untreated cells or cells treated only with BSA (control) were also measured, as reference for BSA‐free and BSA‐containing drug formulations, respectively. […] Cell viability is expressed as percentage (%) relative to control (untreated cultures).58 Experiments were run in three independent replicates. […]

[12] = system: murine microglial cell line BV‐2; assay: Crystal violet (CV) cell viability assay, BV‐2; type: cell-based, mouse; conditions: 72 h
Description: as §1, §7, §8

[13] = system: Human fibroblast cell line MRC‐5; assay: MTT cell viability assay, MRC‐5; type: cell-based; conditions: 72 h
Description: as §1, §7, §8

[14] = system: Human fibroblast cell line MRC‐5; assay: Crystal violet (CV) cell viability assay, MRC‐5; type: cell-based; conditions: 72 h
Description: as §1, §7, §8

[15] = system: primary non‐malignant mouse macrophages (Mph); assay: Crystal violet (CV) cell viability assay, peritoneal macrophages (Mph); type: cell-based; conditions: 72 h
Description: as §1, §7, §8

[16] = system: U251 and LN229 cell lines; assay: Cell viability assays (MTT, CV), summary for glioma and glioblastoma lines; type: cell-based, human; conditions: concentration range tested up to 100 μM, 72 h
Description: as §1, §7, §8

Molecule | IC50 (U251 human glioma [1]; Homo sapiens, U-251, 72 h) | IC50 (LN229 human glioblastoma [2]; Homo sapiens, LN-229, 72 h) | IC50 (A375 human skin melanoma [3]) | IC50 (A375 human skin melanoma [4]) | IC50 (B16 mouse melanoma [5]) | IC50 (B16 mouse melanoma [6]) | IC50 [7] | IC50 [8] | IC50 (U251 human glioma [9]) | IC50 (U251 human glioma [1]; CV assay, 72 h) | IC50 (LN229 human glioblastoma [10]) | IC50 (LN229 human glioblastoma [2]; CV assay, 72 h) | IC50 [11] | IC50 [12] | IC50 [13] | IC50 [14] | IC50 [15] | activity against LN229 and U251 (in words) [16]
CCN(CC)CCCC(C)Nc1ccnc2cc(Cl)ccc12 (stereo not shown) [CQ, chloroquine, reference compound] | 30 to 50 µM | 30 to 50 µM |  |  |  |  |  |  |  |  |  |  |  |  |  |  |  | 
N.N.[Cl][Pt][Cl] [Cisplatin, reference compound] |  |  | 3.3 ± 0.4 µM | 3.7 ± 0.1 µM | 6 ± 0.4 µM | 10.9 ± 1.2 µM | 3 ± 0.5 µM | 3.5 ± 0.2 µM | 400 ± 100 nM | 0.8 ± 0.3 µM | 4.1 ± 0.4 µM | 4.1 ± 0.6 µM |  |  |  |  |  | 
closo ‐[3‐(η^6‐p‐Cymene)‐1‐[(7‐chloroquinolin‐4‐yl)oxy]butyl acetate)‐3,1,2‐RuC2B9H10] [Compound 5] |  |  | 43.4 ± 0.3 µM | > 100 µM | 9.5 ± 1.8 µM | 33.7 ± 2.9 µM | 15.5 ± 1.5 µM | 34.1 ± 0.5 µM | > 100000 nM | > 100 µM | 86.7 ± 3 µM | 82.5 ± 7.6 µM | 12.3 ± 0.1 µM | > 100 µM | > 100 µM | > 100 µM | > 100 µM | inactive

Source: PMC6973020, “Quinoline‐Conjugated Ruthenacarboranes: Toward Hybrid Drugs with a Dual Mode of Action” (Chemmedchem, 2019)
